From ChEMBL document CHEMBL5725377, “BET bromodomain inhibitors and therapeutic methods using the same” (2017)

Tests used:
[1] = target: T1, Bromodomain-containing protein 2 (Homo sapiens, UniProt P25440); assay: (§1) FP Competitive Binding Assay (No.350): Fluorescence Polarization (FP) competitive binding studies (see above) were carried out using the FAM labeled fluorescent probe Cpd. No. 350 to determine binding affinities of representative compounds to both BD1 and BD2 of BRD2, BRD3, and BRD4 proteins. Equilibrium dissociation constants (Id) values of Cpd. […] Final Cpd. […] Kd values of Cpd.
[2] = target: T2, Bromodomain-containing protein 3 (Homo sapiens, UniProt Q15059); assay: as §1
[3] = target: Bromodomain-containing protein 4 (Homo sapiens, UniProt O60885); assay: as §1
[4] = target: T1, Bromodomain-containing protein 2; assay: as §1; remark: listed apart in the source
[5] = target: T2, Bromodomain-containing protein 3; assay: as §1; remark: listed apart in the source

T2 sequence (Q15059 whole entry): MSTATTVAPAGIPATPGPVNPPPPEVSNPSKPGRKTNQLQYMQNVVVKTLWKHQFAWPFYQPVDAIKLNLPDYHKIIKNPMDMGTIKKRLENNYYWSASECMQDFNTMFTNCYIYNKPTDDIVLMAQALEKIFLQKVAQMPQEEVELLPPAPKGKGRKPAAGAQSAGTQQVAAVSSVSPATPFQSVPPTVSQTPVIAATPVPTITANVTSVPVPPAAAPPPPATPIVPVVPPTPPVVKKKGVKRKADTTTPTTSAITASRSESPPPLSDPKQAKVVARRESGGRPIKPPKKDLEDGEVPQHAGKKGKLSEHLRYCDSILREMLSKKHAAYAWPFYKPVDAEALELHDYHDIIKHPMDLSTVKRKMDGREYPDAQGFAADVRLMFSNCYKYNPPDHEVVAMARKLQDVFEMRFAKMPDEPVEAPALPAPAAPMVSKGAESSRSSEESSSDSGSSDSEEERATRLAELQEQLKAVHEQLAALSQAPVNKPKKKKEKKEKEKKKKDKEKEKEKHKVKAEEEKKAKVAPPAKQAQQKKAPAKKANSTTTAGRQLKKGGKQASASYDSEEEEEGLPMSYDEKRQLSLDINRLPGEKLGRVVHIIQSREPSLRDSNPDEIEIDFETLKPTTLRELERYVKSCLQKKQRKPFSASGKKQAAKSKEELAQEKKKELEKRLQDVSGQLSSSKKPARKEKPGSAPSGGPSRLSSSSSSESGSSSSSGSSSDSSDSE
T1 sequence (P25440 whole entry): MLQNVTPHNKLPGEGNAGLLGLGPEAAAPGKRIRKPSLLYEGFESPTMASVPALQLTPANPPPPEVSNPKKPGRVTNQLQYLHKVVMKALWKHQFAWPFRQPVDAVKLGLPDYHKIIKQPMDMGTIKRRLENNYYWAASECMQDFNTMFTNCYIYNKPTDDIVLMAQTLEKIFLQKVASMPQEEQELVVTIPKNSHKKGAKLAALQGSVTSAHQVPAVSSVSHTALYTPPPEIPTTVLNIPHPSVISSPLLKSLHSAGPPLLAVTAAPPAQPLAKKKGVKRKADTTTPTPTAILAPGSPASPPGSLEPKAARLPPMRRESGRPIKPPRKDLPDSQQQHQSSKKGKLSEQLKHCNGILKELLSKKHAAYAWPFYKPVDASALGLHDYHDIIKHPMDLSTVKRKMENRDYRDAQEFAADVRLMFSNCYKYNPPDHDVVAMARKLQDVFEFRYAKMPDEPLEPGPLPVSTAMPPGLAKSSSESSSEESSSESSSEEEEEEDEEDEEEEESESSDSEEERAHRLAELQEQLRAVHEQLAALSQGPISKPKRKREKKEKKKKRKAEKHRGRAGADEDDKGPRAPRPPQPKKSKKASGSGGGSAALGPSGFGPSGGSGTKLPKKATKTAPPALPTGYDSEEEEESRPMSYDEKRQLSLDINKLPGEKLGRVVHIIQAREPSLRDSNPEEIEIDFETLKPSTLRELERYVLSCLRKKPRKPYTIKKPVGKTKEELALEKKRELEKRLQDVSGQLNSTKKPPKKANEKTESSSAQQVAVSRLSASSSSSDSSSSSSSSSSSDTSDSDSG

| SMILES | Ki [1] [nM] | Ki [2] [nM] | Ki [3] [nM] | Ki [4] [nM] | Ki [5] [nM] |
| --- | --- | --- | --- | --- | --- |
| COc1cc2c(cc1-c1c(C)noc1C)[nH]c1nc(C)nc(-c3cc(C(=O)NC4CCN(C)CC4)cc(C(C)(C)C)c3)c12 | 2.2 | 6.3 | 9 | 5.2 | 1.1 |
| COc1cc2c(cc1-c1c(C)noc1C)[nH]c1nc(C)nc(-c3ccc(NC(=O)N4CCN(C)CC4)c4ccccc34)c12 | 4.6 | 7.5 | 11 | 2.6 | 0.82 |
| COc1cc2c(cc1-c1c(C)noc1C)[nH]c1nc(C)nc(-c3ccc(NC(=O)N4CCN(C5COC5)CC4)c4ccccc34)c12 | 17 | 23 | 39 | 7.8 | 3.5 |
